Values joined by “and” are separate entries in the source; they are usually repeats but may differ in a detail not shown here. Equal entries are not always repeated. Active and inactive are the calls of the source.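 Rule for the calls: active = compounds raising the signal whose fitted half-maximal concentration is at or below their top tested dose (cut at about 25 µM in these data); inconclusive = flat fit at 30 to 70% activity, or a poor fit; inactive = the rest.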
System: INS-1E rat beta cells, no cytokines, CellTiter-Glo ATP, 48 h
Assay: cytokine-free beta-cell viability effect – INS-1E rat cells, ATP luminescence, cherry pick, counter-screen for beta-cell apoptosis protection project, dose response (AID 463229)

Question: With `CC1CCC(C(C)C)C(OC(=O)Cn2c(-c3ccc(Br)cc3)[n+](C)c3ccccc32)C1` (stereo not given) as the molecule, how does the AC50 read?
Answer: The AC50 was 3.86 µM and 4.4 µM.

Question: `N=c1c2c(ncn1CCCO)Oc1ccc3ccccc3c1C2c1ccccc1` (stereo not given) was tested. Which AC50 did it give?
Answer: Its AC50 is > 26 µM (inactive).

Question: For `COc1ccc(-c2ccc3c(c2)S(=O)(=O)c2cccc(C(=O)NCCOc4ccccc4Cl)c2C3=O)cc1OC`, which AC50 is on record?
Answer: The AC50 was 3.5 µM.

Question: `Cc1[nH]n(-c2ccc(Br)cc2)c(=O)c1/C=N/NC(=O)c1ccccc1` was tested. Which AC50 did it give?
Answer: The AC50 was 2.13 µM.

Question: With `CCOC(=O)c1sc(NC(=O)Nc2cccc(Cl)c2)cc1C` as the molecule, how does the AC50 read?
Answer: Its AC50 is 7.53 µM.

Question: With `COc1cc(N/N=C/c2ccccc2O)ncn1` as the molecule, how does the AC50 read?
Answer: Its AC50 is 16.2 µM.

Question: With `CC1=NN(c2nc3ccccc3[nH]2)C(=O)C1Cc1ccccc1` (stereo not given) as the molecule, how does the AC50 read?
Answer: The AC50 was 2.1 µM.

Question: For `CC(C)(C)c1cc(NCCCn2ccnc2)n2ncc(-c3ccccc3)c2n1`, which AC50 is on record?
Answer: Its AC50 is 15 µM.

Question: `Cc1c(C(=O)Nc2nc(-c3ccccn3)cs2)oc2ccccc12` was tested. Which AC50 did it give?
Answer: The AC50 was 17.4 µM.

Question: For `CCOC(=O)c1cnc(-n2nc(C)cc2C)nc1Nc1ccc(O)cc1`, which AC50 is on record?
Answer: The AC50 was 1.41 µM.

Question: How did the AC50 turn out when `O=S(=O)(c1ccc(F)c(F)c1F)N1CCN(c2ncnc3sccc23)CC1` was run?
Answer: Its AC50 is 7.17 µM.

Question: With `CC(CCCC(C)(C)O)NC(=O)c1cc(COc2ccc3ncccc3c2)on1` (stereo not given) as the molecule, how does the AC50 read?
Answer: Its AC50 is 8.48 µM.

Question: Which AC50 does the source give for `COc1ccc(O)c(/C=N/Nc2nc(Nc3ccccc3)nc(-n3nc(C)cc3C)n2)c1` here?
Answer: The AC50 was 11.3 µM.

Question: `CC(=O)N(C)C1=C(N2CCOCC2)C(=O)c2ccccc2C1=O` was tested. Which AC50 did it give?
Answer: Its AC50 is 7.91 µM.

Question: `Cc1cc(-n2c(SCC(=O)Nc3ccc(F)c(F)c3)nc3n[nH]c(C)c3c2=N)ccc1Cl` was tested. Which AC50 did it give?
Answer: The AC50 was 5.84 µM.

Question: For `CCN(CC)CCC(=O)Nc1cccc2c1C(=O)c1ccccc1C2=O`, which AC50 is on record?
Answer: The AC50 was 12 µM.

Question: With `Cc1ccc(C)c(N2CCN(C(=O)CCCOc3cc(=O)n(C)c4ccccc34)CC2)c1` as the molecule, how does the AC50 read?
Answer: The AC50 was 2.7 µM.

Question: How did the AC50 turn out when `CCOC(=O)N1CCN(S(=O)(=O)c2ccc(C(=O)NNc3nc4cc(C)cc(C)c4s3)cc2)CC1` was run?
Answer: Its AC50 is 6.01 µM.

Question: With `Cc1ccc(-c2cn(-c3ccccc3)c3[n+]2CCCS3)cc1` as the molecule, how does the AC50 read?
Answer: The AC50 was 1.97 µM and 2.98 µM.

Question: `O=C(CNC(=O)c1ccccc1)N/N=C/c1cc(Br)ccc1O` was tested. Which AC50 did it give?
Answer: The AC50 was 15.2 µM.

Question: `Cc1cccc2sc(NNC(=O)c3ccc(S(=O)(=O)N4CCCC(C)C4)cc3)nc12` (stereo not given) was tested. Which AC50 did it give?
Answer: The AC50 was 6.74 µM.

Question: For `Cc1cc(NC2CCCCC2)nc(NCc2ccccc2)n1`, which AC50 is on record?
Answer: Its AC50 is 3.71 µM.

Question: How did the AC50 turn out when `Oc1c(C(Nc2ccccn2)c2cccnc2)cc(Cl)c2cccnc12` (stereo not given) was run?
Answer: Its AC50 is 7.48 µM.

Question: With `Cc1cc(C(=O)NC2CCCc3c2cnn3-c2cccc(C)c2C)n(C)n1` (stereo not given) as the molecule, how does the AC50 read?
Answer: Its AC50 is 0.342 µM.

Question: For `COc1ccc(C(NC(C)=O)c2cc(Cl)c3cccnc3c2O)cc1` (stereo not given), which AC50 is on record?
Answer: The AC50 was 7.34 µM.

Question: With `O=C(OCn1ncc(Cl)c(Cl)c1=O)c1ccccc1Cl` as the molecule, how does the AC50 read?
Answer: Its AC50 is 7.84 µM.

Question: `O=S(=O)(c1ccc(Cl)cc1)N1CCN(c2ncnc3sccc23)CC1` was tested. Which AC50 did it give?
Answer: The AC50 was 6.65 µM.

Question: For `COC(=O)c1cc(C)nc2c1C(=O)C(=O)C=C2N1CCOCC1`, which AC50 is on record?
Answer: Its AC50 is 4.66 µM.

Question: `COc1cc(C(=O)Oc2c(CN3CCOCC3)cc(Cl)c3cccnc23)cc(OC)c1OC` was tested. Which AC50 did it give?
Answer: The AC50 was 13.3 µM.

Question: With `Cc1nc2ccc(NC(=O)c3cc(S(=O)(=O)N(C)c4ccccc4)ccc3Cl)cc2s1` as the molecule, how does the AC50 read?
Answer: The AC50 was 2.8 µM.

Question: `O=C(Nc1ccc(Cc2ccncc2)cc1)c1ccc([N+](=O)[O-])o1` was tested. Which AC50 did it give?
Answer: Its AC50 is 10.1 µM.

Question: For `CN(C)S(=O)(=O)c1ccc(Nc2nc(C3CC3)nc3c2nnn3Cc2ccccc2Cl)cc1`, which AC50 is on record?
Answer: The AC50 was 7 µM.

Question: How did the AC50 turn out when `COc1ccc(S(=O)(=O)Nc2cc(SCC(=O)O)c(O)c3ccccc23)cc1` was run?
Answer: Its AC50 is 8.19 µM.

Question: `CCCCCc1nc2c(c(=O)c3ccccc3n2C)c(=O)n1C1CCCCCC1` was tested. Which AC50 did it give?
Answer: The AC50 was 6.84 µM.

Question: Which AC50 does the source give for `CCN(C1CCCCC1)S(=O)(=O)c1ccc(S(=O)(=O)NCc2ccncc2)cc1` here?
Answer: Its AC50 is 6.3 µM.

Question: For `CCC(CNc1cc(OC)cc2cccnc12)NC1CCCCC1` (stereo not given), which AC50 is on record?
Answer: The AC50 was > 26 µM (inactive).

Question: With `S=C(NCCCN1CCOCC1)N1CCN(c2nc(-c3ccc(Cl)cc3)cs2)CC1` as the molecule, how does the AC50 read?
Answer: Its AC50 is 12.9 µM.

Question: How did the AC50 turn out when `CC1=C(C#N)C(C(F)(F)F)(C(F)(F)F)N=C(c2ccco2)N1` was run?
Answer: The AC50 was 12.8 µM.

Question: With `CC(=O)/C=C1\N(C)c2ccc(C)cc2C1(C)C` as the molecule, how does the AC50 read?
Answer: Its AC50 is 7.3 µM.

Question: How did the AC50 turn out when `CCCCOCCCNc1ncnc2c1[nH]c1ccccc12` was run?
Answer: Its AC50 is 2.24 µM.

Question: How did the AC50 turn out when `Cc1cccc2cc(-c3ccccc3)c(-c3ccccc3)c[n+]12` was run?
Answer: The AC50 was 4.21 µM.

Question: `Nc1c(Cl)ncnc1N/N=C/c1ccccn1` was tested. Which AC50 did it give?
Answer: Its AC50 is 2.07 µM.

Question: For `O=C1C(=O)c2c(C(=O)c3ccccc3)coc2-c2ccccc21`, which AC50 is on record?
Answer: The AC50 was 7.21 µM.

Question: `Cc1ccc(C(C)C)c(OCc2nn(CC(=O)c3ccc(Cl)cc3)c3[n+]2CCCCC3)c1` was tested. Which AC50 did it give?
Answer: The AC50 was 4.55 µM.

Question: `Cc1ccc(S(=O)(=O)N2CCN(c3ncnc4ccccc34)CC2)cc1` was tested. Which AC50 did it give?
Answer: The AC50 was 6.28 µM.

Question: How did the AC50 turn out when `CN(Cc1c(F)cccc1Cl)C(=O)c1cc2ccccc2o1` was run?
Answer: Its AC50 is > 26 µM (inactive).

Question: Which AC50 does the source give for `Cn1c(=O)[nH]c(=O)c2c1nc([N+](=O)[O-])n2Cc1ccccc1` here?
Answer: Its AC50 is 6.67 µM.

Question: `Cc1nc2ccccc2n1-c1nc(-c2ccco2)cc(C(F)(F)F)n1` was tested. Which AC50 did it give?
Answer: Its AC50 is 1.86 µM.

Question: With `FC(F)Sc1ccc(N=C2NN=C(c3ccc4c(c3)OCCO4)CS2)cc1` as the molecule, how does the AC50 read?
Answer: Its AC50 is 2.9 µM.

Question: With `CCOc1ccc(S(=O)(=O)N(C(=O)c2ccco2)c2cc3sc(=O)oc3c3ccccc23)cc1` as the molecule, how does the AC50 read?
Answer: Its AC50 is 12.7 µM.

Question: For `Oc1cccc(C(Nc2nccs2)c2ccc3cccnc3c2O)c1` (stereo not given), which AC50 is on record?
Answer: Its AC50 is 2.54 µM.

Question: For `CCN(CC)CCNc1ncnc2c1sc1nc(N3CCOCC3)c3c(c12)CC(C)(C)SC3`, which AC50 is on record?
Answer: Its AC50 is 14.2 µM.

Question: How did the AC50 turn out when `CC(C)C(=O)NC(c1cccs1)c1cc([N+](=O)[O-])c2cccnc2c1O` (stereo not given) was run?
Answer: The AC50 was 9.51 µM.

Question: With `Cc1cc(C)c2c(N)c3cccc(C)c3nc2n1` as the molecule, how does the AC50 read?
Answer: The AC50 was 7.91 µM.

Question: `C(#Cc1ccccc1)C[N+]1(CC#Cc2cccc3ccccc23)CCCC1` was tested. Which AC50 did it give?
Answer: The AC50 was 8.17 µM.

From PubChem BioAssay AID463229 (Broad Institute, 2010)
